Reference: PubChem BioAssay (NCI)
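Results reflect a 48-hour exposure of cells in 96-well plates to compound at five concentrations. GI50: concentration for 50% inhibition of growth. TGI: total growth inhibition.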

Assays:
Test in all cases: NCI tumour cell line growth inhibition, 48 h
DU-145 prostate = test system: DU-145 prostate
HOP-62 NSCLC = test system: HOP-62 NSCLC
RPMI-8226 leukemia = test system: RPMI-8226 leukemia
ACHN renal = test system: ACHN renal
HCC-2998 colon = test system: HCC-2998 colon
SK-MEL-28 melanoma = test system: SK-MEL-28 melanoma
HCT-15 colon = test system: HCT-15 colon
KM12 colon = test system: KM12 colon
SW-620 colon = test system: SW-620 colon
PC-3 prostate = test system: PC-3 prostate
TK-10 renal = test system: TK-10 renal
COLO 205 colon = test system: COLO 205 colon
U251 CNS = test system: U251 CNS
RXF 393 renal = test system: RXF 393 renal
SNB-19 CNS = test system: SNB-19 CNS
SF-268 CNS = test system: SF-268 CNS
UACC-62 melanoma = test system: UACC-62 melanoma
SN12C renal = test system: SN12C renal
OVCAR-5 ovarian = test system: OVCAR-5 ovarian
BT-549 breast = test system: BT-549 breast
MOLT-4 leukemia = test system: MOLT-4 leukemia
A549 NSCLC = test system: A549 NSCLC
A498 renal = test system: A498 renal
NCI/ADR-RES ovarian = test system: NCI/ADR-RES ovarian
HL-60(TB) leukemia = test system: HL-60(TB) leukemia
CAKI-1 renal = test system: CAKI-1 renal
K-562 leukemia = test system: K-562 leukemia
MDA-MB-231 breast = test system: MDA-MB-231 breast
T-47D breast = test system: T-47D breast
HT29 colon = test system: HT29 colon
UO-31 renal = test system: UO-31 renal
NCI-H460 lung = test system: NCI-H460 lung
SK-OV-3 ovarian = test system: SK-OV-3 ovarian
HS 578T breast = test system: HS 578T breast
SF-539 CNS = test system: SF-539 CNS
NCI-H226 lung = test system: NCI-H226 lung
NCI-H23 lung = test system: NCI-H23 lung
IGROV1 ovarian = test system: IGROV1 ovarian
SK-MEL-2 melanoma = test system: SK-MEL-2 melanoma
OVCAR-4 ovarian = test system: OVCAR-4 ovarian
HCT-116 colon = test system: HCT-116 colon
786-0 renal = test system: 786-0 renal
SK-MEL-5 melanoma = test system: SK-MEL-5 melanoma
NCI-H522 lung = test system: NCI-H522 lung
SR leukemia = test system: SR leukemia
CCRF-CEM leukemia = test system: CCRF-CEM leukemia
OVCAR-3 ovarian = test system: OVCAR-3 ovarian
M14 melanoma = test system: M14 melanoma
UACC-257 melanoma = test system: UACC-257 melanoma
OVCAR-8 ovarian = test system: OVCAR-8 ovarian
MDA-MB-435 = test system: MDA-MB-435
MCF7 breast = test system: MCF7 breast
LOX IMVI melanoma = test system: LOX IMVI melanoma
SNB-75 CNS = test system: SNB-75 CNS
SF-295 CNS = test system: SF-295 CNS
MALME-3M melanoma = test system: MALME-3M melanoma

## CC(C)=CC(=O)OC1C(CO)OC(Oc2cc(O)c3c(=O)cc(-c4ccc(O)c(O)c4)oc3c2)C(OC2OC(C)C(O)C(O)C2O)C1O (configuration not stated)
DU-145 prostate
  GI50: > 100 µM
  TGI: > 100 µM
HOP-62 NSCLC
  GI50: > 100 µM
  TGI: > 100 µM
RPMI-8226 leukemia
  GI50: 85.6 µM
  TGI: > 100 µM
ACHN renal
  GI50: > 100 µM
  TGI: > 100 µM
HCC-2998 colon
  GI50: > 100 µM
  TGI: > 100 µM
SK-MEL-28 melanoma
  GI50: > 100 µM
  TGI: > 100 µM
HCT-15 colon
  GI50: > 100 µM
  TGI: > 100 µM
KM12 colon
  GI50: > 100 µM
  TGI: > 100 µM
SW-620 colon
  GI50: > 100 µM
  TGI: > 100 µM
PC-3 prostate
  GI50: > 100 µM
  TGI: > 100 µM
TK-10 renal
  GI50: > 100 µM
  TGI: > 100 µM
COLO 205 colon
  GI50: > 100 µM
  TGI: > 100 µM
U251 CNS
  GI50: > 100 µM
  TGI: > 100 µM
RXF 393 renal
  GI50: > 100 µM
  TGI: > 100 µM
SNB-19 CNS
  GI50: > 100 µM
  TGI: > 100 µM
SF-268 CNS
  GI50: > 100 µM
  TGI: > 100 µM
UACC-62 melanoma
  GI50: > 100 µM
  TGI: > 100 µM
SN12C renal
  GI50: > 100 µM
  TGI: > 100 µM
OVCAR-5 ovarian
  GI50: > 100 µM
  TGI: > 100 µM
BT-549 breast
  GI50: > 100 µM
  TGI: > 100 µM
MOLT-4 leukemia
  GI50: > 100 µM
  TGI: > 100 µM
A549 NSCLC
  GI50: > 100 µM
  TGI: > 100 µM
A498 renal
  GI50: > 100 µM
  TGI: > 100 µM
NCI/ADR-RES ovarian
  GI50: > 100 µM
  TGI: > 100 µM
HL-60(TB) leukemia
  GI50: > 100 µM
  TGI: > 100 µM
CAKI-1 renal
  GI50: > 100 µM
  TGI: > 100 µM
K-562 leukemia
  GI50: > 100 µM
  TGI: > 100 µM
MDA-MB-231 breast
  GI50: > 100 µM
  TGI: > 100 µM
T-47D breast
  GI50: > 100 µM
  TGI: > 100 µM
HT29 colon
  GI50: > 100 µM
  TGI: > 100 µM
UO-31 renal
  GI50: > 100 µM
  TGI: > 100 µM
NCI-H460 lung
  GI50: > 100 µM
  TGI: > 100 µM
SK-OV-3 ovarian
  GI50: > 100 µM
  TGI: > 100 µM
HS 578T breast
  GI50: > 100 µM
  TGI: > 100 µM
SF-539 CNS
  GI50: > 100 µM
  TGI: > 100 µM
NCI-H226 lung
  GI50: > 100 µM
  TGI: > 100 µM
NCI-H23 lung
  GI50: > 100 µM
  TGI: > 100 µM
IGROV1 ovarian
  GI50: > 100 µM
  TGI: > 100 µM
SK-MEL-2 melanoma
  GI50: > 100 µM
  TGI: > 100 µM
OVCAR-4 ovarian
  GI50: > 100 µM
  TGI: > 100 µM
HCT-116 colon
  GI50: > 100 µM
  TGI: > 100 µM
786-0 renal
  GI50: > 100 µM
  TGI: > 100 µM
SK-MEL-5 melanoma
  GI50: > 100 µM
  TGI: > 100 µM
NCI-H522 lung
  GI50: > 100 µM
  TGI: > 100 µM
SR leukemia
  GI50: 50 µM
  TGI: 98.8 µM
CCRF-CEM leukemia
  GI50: > 100 µM
  TGI: > 100 µM
OVCAR-3 ovarian
  GI50: > 100 µM
  TGI: > 100 µM
M14 melanoma
  GI50: > 100 µM
  TGI: > 100 µM
UACC-257 melanoma
  GI50: > 100 µM
  TGI: > 100 µM
OVCAR-8 ovarian
  GI50: > 100 µM
  TGI: > 100 µM
MDA-MB-435
  GI50: > 100 µM
  TGI: > 100 µM
MCF7 breast
  GI50: > 100 µM
  TGI: > 100 µM
LOX IMVI melanoma
  GI50: > 100 µM
  TGI: > 100 µM
SNB-75 CNS
  GI50: > 100 µM
  TGI: > 100 µM
SF-295 CNS
  GI50: > 100 µM
  TGI: > 100 µM
MALME-3M melanoma
  GI50: > 100 µM
  TGI: > 100 µM
